# Source: patent publication US7662388B2, “Endogenous peptide and active subfragments thereof” (Innoventus Project AB, priority 2003, dated 2010)
# Key:
# [1] = tested on: T241 fibrosarcoma tumour vessels; assay: CD31 staining and stereological quantification of tumour vascular parameters; assay type: in vivo, mice
# Protocol: (§1) Paraffin-sections of tumours from control- or HRGP-treated animals were immunohistochemically (IHC) stained for CD31 and Ki67 using a goat anti-mouse CD31 antibody (1506; Santa Cruz), diluted 1:500 and incubated at +4° C. over night, and a rat anti-mouse Ki67 antibody (TEC-3/M7249; DAKO) diluted 1:50 and incubated for 30 min. at room temperature, according to standard IHC procedures. Detection of apoptotic cells by the TUNEL-technique was performed using ApopTag™ (Intergen Company) according to the manufacturer's protocol. Stereological quantification of vascular parameters was performed as described earlier by Weibel et al (1979) and Gundersen et al (1988). Quantification of the relative number of Tunel- and Ki67-positive cells was calculated from approximately 3000 cells per tumour section, in three tumours from each treatment group. Significance at the level of P<0.05 was calculated using Students t-test.
# Sections of paraffin-embedded tumours from control (IgG)- or HRGP-treated mice were immunohistochemically stained for CD31 expression to visualise the vessels. […] Stereological quantification of vascular parameters was performed as described earlier by Weibel et al (1979) and Gundersen et al (1988). This method of quantifying tumour angiogenesis relates the length, volume and surface area of the vessels to tumour volume.
# BCE cells = assay: endothelial cell adhesion to matrix proteins; assay type: cell-based, bovine; conditions: HRGP 100 ng/ml, serum-free medium, 45 min
# Protocol: BCE cells were detached using non-enzymatic “Cell Dissociation Solution” (Sigma), washed and re-suspended in DMEM/0.1% BSA and FGF-2 (2 ng/ml). The cells were seeded in serum-free medium, with or without HRGP (100 ng/ml), into wells pre-coated with BSA, collagen I, collagen IV, laminin-1 or vitronectin, respectively (CytoMatrix ECM 205 kit, Chemicon). The cells were incubated for 45 (collagen I, collagen IV and vitronectin) or 60 minutes (laminin-1), washed three times in PBS and stained with Hoechst 33342 (1 μg/ml; Molecular Probes). The cells were micro-photographed using the 2× objective and the number of attached cells was counted using the “Easy Image Analysis” software (Tekno Optik). Statistical analysis was performed by ANOVA and Tukeys honestly significant difference (HSD) test. The standard deviation is based on the pooled variance.
# T241 fibrosarcoma cells = assay: TUNEL and Ki67 staining of tumour sections; assay type: in vivo, mice
# Protocol: as §1
substance,measurement,setting,value
"HRGP: mature human Histidine Rich Glycoprotein, about 507 amino acid residues","vessel diameter in tumours, visual inspection of CD31 staining",[1]; HRGP-treated vs control,reduced vessel diameter
same,"vascular parameters (length, volume, surface area of vessels related to tumour volume)",[1]; tumours from HRGP-treated vs IgG-treated mice,all six vascular parameters determined were reduced
same,"endothelial cell adhesion to vitronectin, collagen I and collagen IV",BCE cells,decreases endothelial cell adhesion
same,tumour apoptosis compared to control group,"T241 fibrosarcoma cells; TUNEL staining, HRGP vs IgG control",No difference in tumour apoptosis
same,percentage of apoptotic (TUNEL-positive) cells in the tumours,T241 fibrosarcoma cells; tumours from HRGP-treated mice,less than 1%
same,proportion of proliferating (Ki67-positive) cells in tumours,"T241 fibrosarcoma cells; tumours from HRGP-treated mice, control 43%",29%
